The source of these data is patent publication US20260325465A1, “SHP-1 INHIBITORS FOR TREATING CANCER” (MDX MANAGEMENT LLC, priority 2022, published 2026).

“Also recorded” adds a separate entry of the source. A value given as a limit tells only on which side of the number the result lay.

For series [1], the system named is PTP/SHP-1 activity in KPC tumor. As to the kind of experiment: PTP/SHP-1 activity in KPC tumor in vivo. On the set-up: species or system murine. The note with it: therapeutic treatment of KPC tumor.
Series [2] relates to Human monocyte-derived macrophages. As to the kind of experiment: Human monocyte-derived macrophage response in tumor milieu configurations. The format is cell-based. As to conditions: co-cultured with cancer cells (configuration 3). The method, then: Mechanism by which tumor cells inhibit macrophage proinflammatory response in TME was studied. As shown in panel A of FIG. 19, macrophage responses were assayed in a tumor milieu: Human monocyte-derived macrophages (MØ) were cultured alone (configuration 1), cultured in the presence of cancer cells-conditioned medium (50%) that contained cancer cell secreted factors (secretome; configuration 2), or co-cultured with cancer cells (cell “touch” model; configuration 3), or co-cultured with cancer cells that were placed in a transwell (0.4 μm) without “touching” MØ(configuration 4). Macrophages in these settings were treated with proinflammatory stimuli TLR agonist R848 (l g/ml), R848 plus IFNγ (40 ng/ml), or the sting activator MSA-2 (10 μg/ml).

The subject of series [3] is PTP activity in macrophages. Put plainly: PTP activity in macrophages co-cultured with cancer cells and stimulated with IFNγ/LPS or TLR agonists. Format: cell-based. On the set-up: concentration or dose not given beside the values. As to conditions: induced by IFNγ/LPS or TLR agonists, with cancer cell ligation, 30 min, 37 °C. The method, then:
(§1) FIGS. 3A-3E depict modulation of SHP-1 activity in proinflammatory macrophages in cancer. Macrophages co-cultured with cancer cells were stimulated with IFNγ/LPS or TLR agonists (αTLR) comprising CpG, polycytidylic acid (i.e., PolyI:C) and R848 (each 0.4 μg/ml) for 30 min (37 °C) in the presence or the absence of different SHP-1 or SHP-2 inhibitor or activator, followed by cell lysis and assays of PTP activity. FIG. 3A depicts SHP-1 activity regulation mechanisms. […] FIG. 3E depicts that PKCθ negatively regulates SHP-1 activity at a moderate level.

Series [4] relates to SHP-1. As to the kind of experiment: SHP-1 activity in macrophages under proinflammatory stimulation and cancer cell ligation. Format: cell-based. As to conditions: IFNγ/LPS stimulation, cancer cell ligation. The method, then:
FIGS. 2A-2G depict that the inhibition of SHP-1 enhances macrophage proinflammatory response, antigen presentation and phagocytosis in a tumor milieu. FIG. 2A and FIG. 2B depict that SHP-1 activity in macrophages is triggered by proinflammatory stimulation and the extracellular cancer cell ligation (“touching”) of macrophages (green bar in FIG. 2A). […] The SHP-2 inhibitor SHP099 (1 μg/ml) was used in assays. FIG. 2C depicts the inhibition of SHP-1 by TPI-1 dose-dependently recovers IFNγ/LPS-induced activation of STAT1 (p-STAT1) and Erk1/2 (p-Erk1/2) de-activated by SHP-1 (red line). FIG. 2D and FIG. 2E depict that the inhibition of SHP-1 in macrophages by TPI-1 enhances production of proinflammatory cytokines (FIG. 2D) and expression of immunogenic antigen presentation machinery (FIG. 2E) by IFNγ/LPS in a tumor milieu. […] The SHP-1 and SHP-2 inhibitors TPI-1 and SHP099, respectively, was used at 1 μg/ml in assays.
as §1
In addition to TPI-1, several other SHP-1 inhibitors such as PTP inhibitor-I, PTP inhibitor-III, and recently reported vitamin E (9, 10) and phomoxanthone A and B (P×A and P×B) (11) were tested. Given that PKCθ modulates SHP-1 activity through phosphorylating Ser591 (12, 13), PKCθ inhibitor and activator were also tested in various assays.

Series [5] deals with macrophages. Put plainly: Macrophage cytokine production under immunosuppressive or proinflammatory stimulation with cancer cell ligation. Format: cell-based. The source says:
FIGS. 6A-6D depict that the inhibition of SHP-1 promotes anti-tumor effects or pro-tumor effects under different circumstances. FIG. 6A depicts that intratumoral macrophages upregulate expression of iRs (Pir-B, Siglec E, F and G, and SIRPα) along with tumor progression to late-stage large sizes. KPC pancreatic tumors of small sizes (<150 mm^3) and those grown to larger sizes (>800 mm^3) were dissociated to single cells, followed by flow cytometry analyses for cell surface protein expression on macrophages (gated F4/80+). FIG. 6B depicts that the inhibition of SHP-1 alone promotes TME immunosuppression. Excised MC38 solid tumor cubes were treated with SHP-1 inhibitor TPI-1 (100 nM) or vehicle (DMSO) in a cell culture setting. After 24 h, tumor secreting cytokines into the culture medium were assayed by ELISA.
The SHP-1 activity in non-therapeutic solid tumors is low (see FIGS. 7A-7D), and this low activity inhibits immunosuppressive receptor signaling. […] In parallel experiments, the same SHP-1 inhibitors augmented macrophage responses to the M1 stimuli IFNγ and LPS and enhanced proinflammatory cytokine production.

For series [6], the system named is TLR7/8 overexpressing pancreatic cancer cell line. The note with it: stimulation of TLR7/8; cited from earlier work.
The test system of series [7] is malignant melanoma and advanced malignancies. As to conditions: cited from earlier work.
The test system of series [8] is macrophages. As to the kind of experiment: Macrophage antigen presentation and proinflammatory response in presence of tumor cells with or without iShp1. As to conditions: for pro-inflammatory activation of macrophages: combined with iShp1 (TPI-1), tumor milieu. Format: cell-based. The method, then:
FIGS. 16A-16D depicts activation of macrophage proinflammatory response and antigen presentation in a tumor milieu by SHP-1 inhibition (iShp1) combination regimens. FIG. 16A depicts the testing system. FIG. 16B and FIG. 16C depict effects of interferons with or without TPI-1. FIG. 16D depicts effects of various agents including IL-1 family cytokines (IL-1, IL-18), TNFα and TLR ligands combined with TPI-1.
In vitro macrophages were assayed in the presence of tumor cells that ligate macrophage iRs with or without inhibition of SHP-1 (iShp1) by TPI-1. See the testing system in FIG. 16A.

Series [9] concerns SHP-2. As to the kind of experiment: SHP-2 binding to macrophage iRs with phosphorylated ITIMs. The format is cell-based. The note with it: macrophages stimulated.
Series [10] relates to SHP-1. As to the kind of experiment: SHP-1 binding to macrophage iRs with phosphorylated ITIMs. Format: cell-based. The note with it: macrophages stimulated. The source says:
Proinflammatory signal-induced Src family TK(s) mediate phosphorylation in the cytoplastic domain ITIMs that dock SHP-1 leading to SHP-1 activation.

Regarding `Nc1nc2c(ncn2[C@@H]2O[C@@H]3COP(=O)(O)O[C@H]4[C@@H](O)[C@H](n5cnc6c(N)ncnc65)O[C@@H]4COP(=O)(O)O[C@@H]2[C@@H]3O)c(=O)[nH]1` [2′3′-cGAMP], the “PTP/SHP-1 activity induced in tumor” value in series [1] was “induced spikes of PTP activities”. The same measure, in the same setting: then `Nc1ncn([C@@H]2O[C@H](CO)[C@@H](O)[C@H]2O)c(=O)n1` [Azacitidine (AZA), Azacitidine], with “spikes of SHP-1 activity are induced”. `COc1cc2cc(C(=O)CCC(=O)O)sc2cc1OC` [MSA-2]: the “macrophage proinflammatory response in co-culture with cancer cells” value in series [2] was “abolishment of proinflammatory response and enhanced immunosuppression with high IL-10 and TGFβ production”. For `O=C1C(=NNc2ccc(S(=O)(=O)O)cc2)C(c2ccc([N+](=O)[O-])cc2)=NN1c1ccccc1` [PHPS1], in [3], the “PTP activity diminished in macrophages” value was less than 10%. On to `CCCCCCCCCCCCCC(=O)O[C@@H]1[C@@H](C)[C@@]2(O)[C@@H](C=C(CO)C[C@]3(O)C(=O)C(C)=C[C@@H]23)[C@@H]2C(C)(C)[C@]12OC(C)=O` [PMA], for which the “SHP-1 activity in macrophages (effect in words)” value (“SHP-1 activity in macrophages” for short) in [4] is on record as “moderately inhibited SHP-1; also recorded: reduced SHP-1 activity”. On to `O=C(CBr)c1ccc(O)cc1` [PTP-I], for which, in series [3], the “PTP activity diminished in macrophages” value is reported as more than 70%. Moreover, the “macrophage production of IL-12 and TNFα” value in series [5] (IFNγ and LPS) is “dose-dependently augmented macrophage proinflammatory response with increased IL-12 and TNFα”. The “macrophage production of IL-10 and TGFβ” value in [5] (IL-4/13 or IL-10 stimulation) is “dose-dependently augmented”. Consider `CCOCc1nc2c(N)nc3ccccc3c2n1CC(C)(C)O` [R848], for which the “macrophage proinflammatory response in co-culture with cancer cells” value in series [2] was “abolishment of proinflammatory response and enhanced immunosuppression with high IL-10 and TGFβ production”. The “cell proliferation and chemosensitivity” value in series [6] was “increased cell proliferation and reduced chemosensitivity”. In the case of `CC1(N)CCN(c2cnc(-c3cccc(Cl)c3Cl)c(N)n2)CC1` [SHP099], the “PTP activity diminished in macrophages” value in series [3] is less than 10%. Take `O.O.O.O.O.O.O.O.O.O=C([O-])[C@@H]1[O][Sb]2([O-])([O][Sb]34([OH])[O][C@H]([C@H](O)CO)[C@H]([O]3)[C@H](C(=O)[O-])[O]4)[O][C@H]([C@H](O)CO)[C@@H]1[O]2.[Na+].[Na+].[Na+]` [SSG, sodium stibogluconate]: the “effect against tumor development” value in series [7] (combination with interferons, with or without chemotherapy) was “no effect was seen against tumor development”. Also, in series [7] (thrombocytopenia, elevated serum lipase, fatigue, fever, chills, anemia, hypokalemia, pancreatitis, skin rash), the “most common toxic side-effects, share of patients” value is recorded as “up to 68 % of patients”. Consider `CC(C)[C@@](C)(O)[C@@H]1CN(c2nc(-c3[nH]nc4ncccc34)c(F)cc2Cl)CCN1` [VTX27], for which the “SHP-1 activity in macrophages” value in series [4] was “increased SHP-1 activity”. As to IFNα, the “antigen presentation and proinflammatory response” value in series [8] (alone, without and with iShp1 (TPI-1)) is “did not induce antigen presentation or proinflammatory response”. As to IL-1β: IL-1 family cytokine, the “pro-inflammatory activation of macrophages” value (from here on “pro-inflammatory activation”) in [8] was “exhibited capacities of pro-inflammatory activation of macrophages”. Take IL-4: immunosuppressive cytokine: in [9], the “binding of SHP-2 to iR ITIMs” value was “SHP-2 binding is dominated”. Moreover, the “binding of SHP-1 to iR ITIMs” value in series [10] is given as “leads to binding of SHP-1”. On to IL-6: activating cytokine, for which the “binding of SHP-1 to iR ITIMs” value in series [10] is given as “SHP-1 binding occurs exclusively under proinflammatory conditions”.

With IL-10: immunosuppressive cytokine, in series [9], the “binding of SHP-2 to iR ITIMs” value is “SHP-2 binding is dominated”. Besides, the “binding of SHP-1 to iR ITIMs” value in series [10] is recorded as “leads to binding of SHP-1”. As to IL-18: IL-1 family cytokine, the “pro-inflammatory activation” value in series [8] was “exhibited capacities of pro-inflammatory activation of macrophages”. Turning to Phomoxanthone A [Phomoxanthone A (PXA)], the “SHP-1 activity in macrophages” value in series [4] was “dose-dependently, moderately inhibited SHP-1 activity”.

In the case of TGFβ: immunosuppressive cytokine, the “binding of SHP-2 to iR ITIMs” value in series [9] was “SHP-2 binding is dominated”. For the same molecule, the “binding of SHP-1 to iR ITIMs” value in series [10] was “leads to binding of SHP-1”. TNFα: in series [8], the “pro-inflammatory activation” value is listed as “exhibited capacities of pro-inflammatory activation of macrophages”. The “binding of SHP-1 to iR ITIMs” value in series [10] is recorded as “SHP-1 binding occurs exclusively under proinflammatory conditions”. With lipopolysaccharide [LPS], the “binding of SHP-1 to iR ITIMs” value in [10] is on record as “SHP-1 binding occurs exclusively under proinflammatory conditions”. In the case of pervanadate, the “PTP activity diminished in macrophages” value in [3] is more than 70%.

Turning to polycytidylic acid [PolyIC], in series [10], the “binding of SHP-1 to iR ITIMs” value was “SHP-1 binding occurs exclusively under proinflammatory conditions”.

B1: IFNγ: type II interferon (protein, UniProt P01579 24-161, looked up)
Interferon gamma: QDPYVKEAENLKKYFNAGHSDVADNGTLFLGILKNWKEESDRKIMQSQIVSFYFKLFKNFKDDQSIQKSVETIKEDMNVKFFNSNKKKRDDFEKLTNYSVTDLNVQRKAIHELIQVMAELSPAAKTGKRKRSQMLFRG
Turning to B1, in series [8] (plus iShp1 (TPI-1)), the antigen presentation entry is “significantly increased antigen presentation” and the proinflammatory cytokine production result is listed as “did not elicit proinflammatory cytokine production”. In addition, the “binding of SHP-1 to iR ITIMs” value in series [10] is reported as “SHP-1 binding occurs exclusively under proinflammatory conditions”.
